molecular target: T1, human TREM2 (Homo sapiens, UniProt Q9NZC2); test: TREM2 agonist potency by cellular phosphorylation of Syk (AlphaLisa) in HEK293T-hTREM2 cells; assay type: cell-based; settings: HEK293 cells expressing human TREM2 and DAP12, Table D
T1 construct: expressed in transfected cells; host or cells: HEK293T
How it was run: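 Agonist EC50 from a variable-slope four-parameter fit of % activation, based on AlphaLisa phospho-Syk levels in lysates. Cells: HEK293T-hTREM2 (with DAP12), treated 45 min at room temperature with compound in assay buffer.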

T1 sequence (Q9NZC2 19-230): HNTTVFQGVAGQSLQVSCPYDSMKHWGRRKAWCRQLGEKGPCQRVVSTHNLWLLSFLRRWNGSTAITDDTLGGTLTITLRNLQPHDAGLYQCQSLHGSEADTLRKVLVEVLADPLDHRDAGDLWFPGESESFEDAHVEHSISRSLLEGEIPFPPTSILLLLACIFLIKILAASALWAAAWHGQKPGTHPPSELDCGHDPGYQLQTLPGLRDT
T1 sequence (O43914 22-113 partner): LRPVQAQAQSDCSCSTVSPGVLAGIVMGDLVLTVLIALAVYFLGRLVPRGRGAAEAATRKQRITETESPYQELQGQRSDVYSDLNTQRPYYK

EC50	Compound
50 to 500 nM	COc1ccc(-c2nc([C@H]3CCO[C@@H](c4cnn(C5CC5)c4)C3)nc3nc(C)c(C)nc23)cn1 [Example 239, 2-((2R,4S)-2-(1-cyclopropyl-1H-pyrazol-4-yl)tetrahydro-2H-pyran-4-yl)-4-(6-methoxypyridin-3-yl)-6,7-dimethylpteridine]
50 to 500 nM	Cc1nc2nc(N3CCO[C@@H](c4cnn(C5CC5)c4)C3)nc(-c3ccc4c(c3)CC4)c2nc1C [Example 240, (S)-4-(4-(bicyclo[4.2.0]octa-1,3,5-trien-3-yl)-6,7-dimethylpteridin-2-yl)-2-(1-cyclopropyl-1H-pyrazol-4-yl)morpholine]
50 to 500 nM	Cc1nc2nc(N3C[C@@H](C)O[C@@H](c4cnn(C5CC5)c4)C3)nc(-c3ccnn3C)c2nc1C [Example 241, (2S,6R)-2-(1-cyclopropyl-1H-pyrazol-4-yl)-4-(6,7-dimethyl-4-(1-methyl-1H-pyrazol-5-yl)pteridin-2-yl)-6-methylmorpholine]
< 50 nM	Cc1nc2nc(N3CCO[C@H](c4cnn(C5CC5)c4)C3)nc(-c3ccc4c(c3)CC4)c2nc1C [Example 242, (R)-4-(4-(bicyclo[4.2.0]octa-1,3,5-trien-3-yl)-6,7-dimethylpteridin-2-yl)-2-(1-cyclopropyl-1H-pyrazol-4-yl)morpholine]
50 to 500 nM	Cc1ccc(-c2nc(N3C[C@@H](C)O[C@@H](c4cnn(C5CC5)c4)C3)nc3nc(C)c(C)nc23)o1 [Example 243, (2S,6R)-2-(1-cyclopropyl-1H-pyrazol-4-yl)-4-(6,7-dimethyl-4-(5-methylfuran-2-yl)pteridin-2-yl)-6-methylmorpholine]
50 to 500 nM	Cc1ccc(-c2nc(N3C[C@@H](C)O[C@@H](c4cnn(C5CC5)c4)C3)nc3nc(C)c(C)nc23)s1 [Example 244, (2S,6R)-2-(1-cyclopropyl-1H-pyrazol-4-yl)-4-(6,7-dimethyl-4-(5-methylthiophen-2-yl)pteridin-2-yl)-6-methylmorpholine]
500 to 3000 nM	Cc1nc2nc([C@H]3CCO[C@@H](c4cnn(C5CC5)c4)C3)nc(C3C[C@@H](F)[C@@H](F)C3)c2nc1C (stereo partly drawn) [Example 245, 2-((2R,4S)-2-(1-cyclopropyl-1H-pyrazol-4-yl)tetrahydro-2H-pyran-4-yl)-4-((3R,4S)-3,4-difluorocyclopentyl)-6,7-dimethylpteridine]
3000 to 100000 nM	CC(=O)OCc1nc2c(-c3ccc(F)cc3F)nc([C@@H]3CCO[C@@H](c4cnn(C5CC5)c4)C3)cc2nc1C [Example 246, (7-((2R,4R)-2-(1-cyclopropyl-1H-pyrazol-4-yl)tetrahydro-2H-pyran-4-yl)-5-(2,4-difluorophenyl)-2-methylpyrido[3,4-b]pyrazin-3-yl)methylacetate]
< 50 nM	Cc1nc2nc([C@H]3CCO[C@@H](c4cnn(C5CC5)c4)C3)nc(C3CCCCC3)c2nc1C [Example 247, 4-cyclohexyl-2-((2R,4S)-2-(1-cyclopropyl-1H-pyrazol-4-yl)tetrahydro-2H-pyran-4-yl)-6,7-dimethylpteridine]

same assay, conditions: HEK293 cells expressing human TREM2 and DAP12, Table D-2

EC50	Compound
< 50 nM	Cc1nc2nc(N3C[C@@H](C)O[C@@H](c4cnn(C5CC5)c4)C3)cc(-c3ccc(Cl)cc3F)c2nc1C [Example I-1076, (2S,6R)-4-[8-(4-chloro-2-fluoro-phenyl)-2,3-dimethyl-pyrido[2,3-b]pyrazin-6-yl]-2-(1-cyclopropylpyrazol-4-yl)-6-methyl-morpholine]
500 to 3000 nM	Cc1nc2nc(-c3ccc(Cl)cc3F)cc(N3C[C@@H](C)O[C@@H](c4cnn(C5CC5)c4)C3)c2nc1C [Example I-1081, (2S,6R)-4-[6-(4-chloro-2-fluoro-phenyl)-2,3-dimethyl-pyrido[2,3-b]pyrazin-8-yl]-2-(1-cyclopropylpyrazol-4-yl)-6-methyl-morpholine]
500 to 3000 nM	Cc1cc(-c2nc(N3C[C@@H](C)O[C@@H](c4cnn(C5CC5)c4)C3)nc3nc(C)c(C)nc23)on1 [Example I-1086, (2S,6R)-2-(1-cyclopropylpyrazol-4-yl)-4-[6,7-dimethyl-4-(3-methylisoxazol-5-yl)pteridin-2-yl]-6-methyl-morpholine]
< 50 nM	Cc1nc2nc([C@H]3CCO[C@@H](c4cnn(C5CC5)c4)C3)nc(-c3ccc(Cl)cc3F)c2nc1C(F)F [Example I-1099, 4-(4-chloro-2-fluoro-phenyl)-2-[(2R,4S)-2-(1-cyclopropylpyrazol-4-yl)tetrahydropyran-4-yl]-6-(difluoromethyl)-7-methyl-pteridine]
50 to 500 nM	Cc1nc2cc([C@H]3CCO[C@@H](c4cnn(C5CC5)c4)C3)nc(-c3ccc(F)cc3F)c2nc1CO [Example I-1119, (7-((2R,4S)-2-(1-cyclopropyl-1H-pyrazol-4-yl)tetrahydro-2H-pyran-4-yl)-5-(2,4-difluorophenyl)-2-methylpyrido[3,4-b]pyrazin-3-yl)methanol]
< 50 nM	[2H]C([2H])([2H])c1nc2nc(N3C[C@@H](C)O[C@@H](c4cnn(C5CC5)c4)C3)nc(-c3ccc(F)cc3F)c2nc1C([2H])([2H])[2H] [Example I-1129, (2S,6R)-2-(1-cyclopropylpyrazol-4-yl)-4-[4-(2,4-difluorophenyl)-6,7-bis(trideuteriomethyl)pteridin-2-yl]-6-methyl-morpholine]
500 to 3000 nM	Cc1nc2nc([C@H]3CCO[C@@H](c4cnn(C5CC5)c4)C3)nc(-c3ccc(C4CCC4)cc3F)c2nc1C [Example I-1182, 4-(4-cyclobutyl-2-fluoro-phenyl)-2-[(2R,4S)-2-(1-cyclopropylpyrazol-4-yl)tetrahydropyran-4-yl]-6,7-dimethyl-pteridine]
50 to 500 nM	Cc1nc2nc([C@H]3CCO[C@@H](c4cnn(C5CC5)c4)C3)nc(-c3ccc(C4CC4)cc3F)c2nc1C [Example I-1187, 2-((2R,4S)-2-(1-cyclopropyl-1H-pyrazol-4-yl)tetrahydro-2H-pyran-4-yl)-4-(4-cyclopropyl-2-fluorophenyl)-6,7-dimethylpteridine]
500 to 3000 nM	Cc1nc2nc([C@H]3CCO[C@@H](c4cnn(C5CC5)c4)C3)nc(-c3ccc(C(C)C)cc3F)c2nc1C [Example I-1192]
50 to 500 nM	CCCc1ccc(-c2nc([C@H]3CCO[C@@H](c4cnn(C5CC5)c4)C3)nc3nc(C)c(C)nc23)c(F)c1 [Example I-1197]
500 to 3000 nM	COC1(c2nc(-c3ccc(Cl)cc3F)c3nc(C)c(C)nc3n2)CCO[C@@H](c2cnn(C3CC3)c2)C1 (stereo partly drawn) [Example I-1210, 4-(4-chloro-2-fluorophenyl)-2-((2R)-2-(1-cyclopropyl-1H-pyrazol-4-yl)-4-methoxytetrahydro-2H-pyran-4-yl)-6,7-dimethylpteridine]
< 50 nM	Cc1nc2nc([C@H]3CCO[C@@H](c4cnn(C5CC5)c4)C3)nc(-c3ccc(C(F)F)cc3F)c2nc1C [Example I-1216, 2-[(2R,4S)-2-(1-cyclopropylpyrazol-4-yl)tetrahydropyran-4-yl]-4-[4-(difluoromethyl)-2-fluoro-phenyl]-6,7-dimethyl-pteridine]

Compound	EC50
Cc1nc2nc(N3C[C@@H](C)O[C@@H](c4cnn(C5CC5)c4)C3)cc(C#CC3CC3)c2nc1C [Example I-1104, (2S,6R)-4-[8-(2-cyclopropylethynyl)-2,3-dimethyl-pyrido[2,3-b]pyrazin-6-yl]-2-(1-cyclopropylpyrazol-4-yl)-6-methyl-morpholine]	500 to 3000 nM
